# pIC50: −log10 of the molar value.
# Target: MAPK14 (UniProt Q16539)
# Test: p-38 Kinase Inhibition Assay
# Conditions: not given
# MAPK14, sequence (Q16539 whole entry, looked up): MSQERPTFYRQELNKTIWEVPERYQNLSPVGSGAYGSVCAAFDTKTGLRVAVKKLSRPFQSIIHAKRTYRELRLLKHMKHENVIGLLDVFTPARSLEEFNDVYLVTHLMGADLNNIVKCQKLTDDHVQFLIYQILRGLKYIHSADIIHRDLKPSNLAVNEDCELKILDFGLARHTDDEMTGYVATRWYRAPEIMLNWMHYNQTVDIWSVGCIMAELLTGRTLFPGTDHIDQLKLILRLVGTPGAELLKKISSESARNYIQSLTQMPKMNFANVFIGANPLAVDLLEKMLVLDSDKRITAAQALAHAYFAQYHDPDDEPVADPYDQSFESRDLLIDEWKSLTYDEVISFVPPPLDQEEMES
row,Compound,pIC50
1,NC(=NO)c1cccc(C(=O)c2cnn(-c3ccc(F)cc3)c2N)c1,5.84

# Target: MAPK14 (human) (UniProt Q16539)
# Test: Inhibition of LPS-Induced TNF-a Production in THP1 Cells
# Conditions: not given
# MAPK14 (human), sequence (Q16539 whole entry, looked up): as above
row,Compound,pIC50
1,Nc1c(C(=O)c2cccc(N3CCC(Cc4ccccc4)CC3)c2)cnn1-c1ccc(F)cc1,6.85
2,NC(=NO)c1cccc(C(=O)c2cnn(-c3ccc(F)cc3)c2N)c1,6.77
3,Nc1c(C(=O)c2cccc(CCCN3CCOCC3)c2)cnn1-c1ccc(F)cc1,5.98
4,N#CCCCOc1cccc(C(=O)c2cnn(-c3ccc(F)cc3)c2N)c1,6.08
5,Nc1c(C(=O)c2cccc(/C=C/CN3CCOCC3)c2)cnn1-c1ccc(F)cc1,5.90
6,Nc1c(C(=O)c2cccc(/C=C/S(N)(=O)=O)c2)cnn1-c1ccc(F)cc1,5.79
7,Nc1c(C(=O)c2ccc(CCCO)cc2)cnn1-c1ccccc1,5.75
8,Nc1c(C(=O)c2ccc(/C=C/CN3CCOCC3)cc2)cnn1-c1ccc(F)cc1,5.20
9,Nc1c(C(=O)c2cccc(OCCN3CCOCC3)c2)cnn1-c1ccc(F)cc1,6.11
10,CN1CCN(C(=O)COc2cccc(C(=O)c3cnn(-c4ccc(F)cc4)c3N)c2)CC1,6.16
11,Nc1cccc(C(=O)c2cnn(-c3ccc(F)cc3)c2N)c1,6.77
12,Nc1c(C(=O)c2cccc(OCCCN3CCCCC3)c2)cnn1-c1ccc(F)cc1,6.21
13,Nc1c(C(=O)c2cccc(CCS(N)(=O)=O)c2)cnn1-c1ccc(F)cc1,6.29

# Tested on: MAPK14 (sprague-dawley rat)
# Test: Inhibition of LPS Induced TNF-alpha Production in Rats
# Conditions: dose or concentration not given here
row,Compound,inhibition [%]
1,CNCC#Cc1cccc(C(=O)c2cnn(-c3ccc(F)cc3)c2N)c1,86
2,CN1CCN(CC#Cc2cccc(C(=O)c3cnn(-c4ccc(F)cc4)c3N)c2)CC1,86
3,NC(=NO)c1cccc(C(=O)c2cnn(-c3ccc(F)cc3)c2N)c1,76
4,Nc1c(C(=O)c2cccc(C#CCN3CCOCC3)c2)cnn1-c1ccc(F)cc1,96
5,CNC(=O)COc1cccc(C(=O)c2cnn(-c3ccc(F)cc3)c2N)c1,75

# Reference: the Kinase Knowledgebase extract (Sharma et al. 2016)
